According to PMC11003494 (Journal of Enzyme Inhibition and Medicinal Chemistry, 2023):
pKi: −log10 of the molar value.

Columns and labels:
hCA I = hCA I (Homo sapiens, UniProt P00915); assay: Stopped-flow CA catalysed CO2 hydration inhibition assay, hCA I; format: biochemical
hCA XII = hCA XII (Homo sapiens, UniProt O43570); assay: Stopped-flow CA catalysed CO2 hydration inhibition assay, hCA XII; format: biochemical
hCA IX = hCA IX (Homo sapiens, UniProt Q16790); assay: biochemical
hCA II = hCA II (Homo sapiens, UniProt P00918); assay: Stopped-flow CA catalysed CO2 hydration inhibition assay, hCA II; format: biochemical

Chain of hCA XII (O43570 30-289 limits assumed): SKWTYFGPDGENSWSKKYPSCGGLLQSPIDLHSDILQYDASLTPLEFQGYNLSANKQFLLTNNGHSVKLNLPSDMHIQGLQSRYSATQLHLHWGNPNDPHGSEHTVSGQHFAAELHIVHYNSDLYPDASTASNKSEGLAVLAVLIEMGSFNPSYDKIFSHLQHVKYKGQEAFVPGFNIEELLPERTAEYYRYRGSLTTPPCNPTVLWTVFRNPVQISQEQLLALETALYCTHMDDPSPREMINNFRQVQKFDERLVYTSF
Chain of hCA I (P00915 whole entry): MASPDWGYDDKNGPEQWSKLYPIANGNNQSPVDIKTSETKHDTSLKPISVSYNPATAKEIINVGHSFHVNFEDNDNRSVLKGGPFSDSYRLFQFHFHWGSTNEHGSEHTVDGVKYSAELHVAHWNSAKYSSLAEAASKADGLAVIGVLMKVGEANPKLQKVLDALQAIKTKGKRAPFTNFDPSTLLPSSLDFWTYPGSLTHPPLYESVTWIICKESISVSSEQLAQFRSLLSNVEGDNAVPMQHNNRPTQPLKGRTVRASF

In the case of Cc1c(CC(=O)O)c(=O)oc2c(C)c3occ(-c4ccc(F)cc4)c3cc12 [EMAC10164d, 2-(3-(4-Fluorophenyl)-5,9-dimethyl-7-oxo-7H-furo[3,2-g]chromen-6-yl)acetic acid], the pKi (hCA I) was < 4.00, the pKi (hCA XII) was 6.10 and the pKi (hCA IX) was 6.34. The pKi (hCA II) was < 4.00.

With COC(=O)Cc1c(C)c2ccc(OCC(=O)c3ccccc3)c(C)c2oc1=O [EMAC10163i, Methyl 2-(4,8-dimethyl-2-oxo-7-(2-oxo-2-phenylethoxy)-2H-chromen-3-yl)acetate] the pKi (hCA I) was < 4.00, the pKi (hCA XII) was 5.28 and the pKi (hCA IX) was < 4.00. For the same compound, the pKi (hCA II) was < 4.00.

In the case of COC(=O)Cc1c(C)c2ccc(OCC(=O)c3ccc(OC)cc3)c(C)c2oc1=O [EMAC10163b, Methyl 2-(7-(2-(4-methoxyphenyl)-2-oxoethoxy)-4,8-dimethyl-2-oxo-2H-chromen-3-yl)acetate], the pKi (hCA I) was < 4.00, the pKi (hCA XII) was 6.33 and the pKi (hCA IX) was 6.28. For the same compound, the pKi (hCA II) was < 4.00.

With COC(=O)Cc1c(C)c2ccc(OCC(=O)c3cccc([N+](=O)[O-])c3)c(C)c2oc1=O [EMAC10163f, Methyl 2-(4,8-dimethyl-7-(2-(3-nitrophenyl)-2-oxoethoxy)-2-oxo-2H-chromen-3-yl)acetate] the pKi (hCA I) was < 4.00, the pKi (hCA XII) was 5.11 and the pKi (hCA IX) was < 4.00. The pKi (hCA II) was < 4.00.

For Cc1c(CC(=O)O)c(=O)oc2c(C)c3occ(-c4ccc(Cl)cc4)c3cc12 [EMAC10164j, 2-(3-(4-Chlorophenyl)-5,9-dimethyl-7-oxo-7H-furo[3,2-g]chromen-6-yl)acetic acid], the pKi (hCA I) was < 4.00, the pKi (hCA XII) was 5.10 and the pKi (hCA IX) was 5.49. The pKi (hCA II) was < 4.00.

COC(=O)Cc1c(C)c2ccc(OCC(=O)c3ccc(C)cc3)c(C)c2oc1=O [EMAC10163a, Methyl 2‐{4,8‐dimethyl‐7‐[2‐(4‐methylphenyl)‐2‐oxoethoxy]‐2‐oxo‐2H‐chromen‐3‐yl}acetate] was tested, and the pKi (hCA I) was < 4.00, the pKi (hCA XII) was 5.60 and the pKi (hCA IX) was 5.53. For the same compound, the pKi (hCA II) was < 4.00.

For COC(=O)Cc1c(C)c2ccc(OCC(=O)c3ccc(Cl)cc3)c(C)c2oc1=O [EMAC10163j, Methyl 2-(7-(2-(4-chlorophenyl)-2-oxoethoxy)-4,8-dimethyl-2-oxo-2H-chromen-3-yl)acetate], the pKi (hCA I) was < 4.00, the pKi (hCA XII) was 5.62 and the pKi (hCA IX) was < 4.00. For the same compound, the pKi (hCA II) was < 4.00.

COc1cccc(-c2coc3c(C)c4oc(=O)c(CC(=O)O)c(C)c4cc23)c1 [EMAC10164k, 2-(3-(3-Methoxyphenyl)-5,9-dimethyl-7-oxo-7H-furo[3,2-g]chromen-6-yl)acetic acid] was tested, and the pKi (hCA I) was < 4.00, the pKi (hCA XII) was 5.44 and the pKi (hCA IX) was 5.38. For the same compound, the pKi (hCA II) was < 4.00.

With COC(=O)Cc1c(C)c2ccc(OCC(=O)c3ccc(-c4ccccc4)cc3)c(C)c2oc1=O [EMAC10163g, Methyl 2-(7-(2-([1,1′-biphenyl]-4-yl)-2-oxoethoxy)-4,8-dimethyl-2-oxo-2H-chromen-3-yl)acetate] the pKi (hCA I) was < 4.00, the pKi (hCA XII) was 5.05 and the pKi (hCA IX) was < 4.00. For the same compound, the pKi (hCA II) was < 4.00.

COC(=O)Cc1c(C)c2ccc(OCC(=O)c3ccc([N+](=O)[O-])cc3)c(C)c2oc1=O [EMAC10163e, Methyl 2-(4,8-dimethyl-7-(2-(4-nitrophenyl)-2-oxoethoxy)-2-oxo-2H-chromen-3-yl)acetate] was tested, and the pKi (hCA I) was < 4.00, the pKi (hCA XII) was 5.11 and the pKi (hCA IX) was 5.33. The pKi (hCA II) was < 4.00.

COC(=O)Cc1c(C)c2ccc(OCC(=O)c3ccc(F)cc3)c(C)c2oc1=O [EMAC10163d, Methyl 2-(7-(2-(4-fluorophenyl)-2-oxoethoxy)-4,8-dimethyl-2-oxo-2H-chromen-3-yl)acetate] was tested, and the pKi (hCA I) was < 4.00, the pKi (hCA XII) was 5.22 and the pKi (hCA IX) was 5.62. The pKi (hCA II) was < 4.00.

With Cc1c(CC(=O)O)c(=O)oc2c(C)c3occ(-c4ccccc4)c3cc12 [EMAC10164i, 2-(5,9-Dimethyl-7-oxo-3-phenyl-7H-furo[3,2-g]chromen-6-yl)acetic acid] the pKi (hCA I) was < 4.00, the pKi (hCA XII) was 5.47 and the pKi (hCA IX) was 5.50. For the same compound, the pKi (hCA II) was < 4.00.

COC(=O)Cc1c(C)c2ccc(OCC(=O)c3cccc(OC)c3)c(C)c2oc1=O [EMAC10163k, Methyl 2-(7-(2-(3-methoxyphenyl)-2-oxoethoxy)-4,8-dimethyl-2-oxo-2H-chromen-3-yl)acetate] was tested, and the pKi (hCA I) was < 4.00, the pKi (hCA XII) was 5.31 and the pKi (hCA IX) was < 4.00. The pKi (hCA II) was < 4.00.

In the case of Cc1c(CC(=O)O)c(=O)oc2c(C)c3occ(-c4ccc(Br)cc4)c3cc12 [EMAC10164c, 2-(3-(4-Bromophenyl)-5,9-dimethyl-7-oxo-7H-furo[3,2-g]chromen-6-yl)acetic acid], the pKi (hCA I) was < 4.00, the pKi (hCA XII) was 5.35 and the pKi (hCA IX) was < 4.00. The pKi (hCA II) was < 4.00.

COC(=O)Cc1c(C)c2ccc(OCC(=O)c3ccc(Br)cc3)c(C)c2oc1=O [EMAC10163c, Methyl 2-(7-(2-(4-bromophenyl)-2-oxoethoxy)-4,8-dimethyl-2-oxo-2H-chromen-3-yl)acetate] was tested, and the pKi (hCA I) was < 4.00, the pKi (hCA XII) was 5.27 and the pKi (hCA IX) was 5.38. The pKi (hCA II) was < 4.00.

In the case of Cc1ccc(-c2coc3c(C)c4oc(=O)c(CC(=O)O)c(C)c4cc23)cc1 [EMAC10164a, 2-(5,9-Dimethyl-7-oxo-3-(p-tolyl)-7H-furo[3,2-g]chromen-6-yl)acetic acid], the pKi (hCA I) was < 4.00, the pKi (hCA XII) was 5.39 and the pKi (hCA IX) was < 4.00. The pKi (hCA II) was < 4.00.

For Cc1c(CC(=O)O)c(=O)oc2c(C)c3occ(-c4ccc(F)cc4F)c3cc12 [EMAC10164h, 2-(3-(2,4-Difluorophenyl)-5,9-dimethyl-7-oxo-7H-furo[3,2-g]chromen-6-yl)acetic acid], the pKi (hCA I) was < 4.00, the pKi (hCA XII) was 5.20 and the pKi (hCA IX) was 5.37. The pKi (hCA II) was < 4.00.

For COc1ccc(-c2coc3c(C)c4oc(=O)c(CC(=O)O)c(C)c4cc23)cc1 [EMAC10164b, 2-(3-(4-Methoxyphenyl)-5,9-dimethyl-7-oxo-7H-furo[3,2-g]chromen-6-yl)acetic acid], the pKi (hCA I) was < 4.00, the pKi (hCA XII) was 5.34 and the pKi (hCA IX) was < 4.00. For the same compound, the pKi (hCA II) was < 4.00.

For COC(=O)Cc1c(C)c2ccc(OCC(=O)c3ccc(F)cc3F)c(C)c2oc1=O [EMAC10163h, Methyl 2-(7-(2-(2,4-difluorophenyl)-2-oxoethoxy)-4,8-dimethyl-2-oxo-2H-chromen-3-yl)acetate], the pKi (hCA I) was < 4.00, the pKi (hCA XII) was 5.25 and the pKi (hCA IX) was 5.35. For the same compound, the pKi (hCA II) was < 4.00.

In the case of Cc1c(CC(=O)O)c(=O)oc2c(C)c3occ(-c4ccc(-c5ccccc5)cc4)c3cc12 [EMAC10164g, 2-(3-([1,1′-Biphenyl]-4-yl)-5,9-dimethyl-7-oxo-7H-furo[3,2-g]chromen-6-yl)acetic acid], the pKi (hCA I) was < 4.00, the pKi (hCA XII) was 6.09 and the pKi (hCA IX) was 6.15. For the same compound, the pKi (hCA II) was < 4.00.
